Test results from ChEMBL document CHEMBL1201862, “PubChem BioAssay data set” (2004).
Active and inactive are the calls of the source.

Tests used:
[1] = system: BJ; test: cytotoxicity toward BJ-TERT fibroblasts, dose response, cell-based, RAS-independent, luminescence (AID 1933); type: functional; details: Homo sapiens
[2] = system: BJ; test: cells; type: functional, cell-based; details: Homo sapiens
[3] = system: BJ; test: cytotoxicity toward BJ-TERT-LT-ST fibroblasts, dose response, cell-based, RAS-independent, luminescence (AID 1935); type: functional; details: Homo sapiens;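 further: BJ fibroblasts immortalized with TERT plus LT and ST oncogenes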
[4] = cytotoxicity toward DRD oncogenic fibroblasts, dose response, cell-based, non-viral oncogenic, luminescence (AID 1934); type: functional; details: Homo sapiens
[5] = biological target: T1, Short transient receptor potential channel 4 (Mus musculus, UniProt Q9QUQ5); test: mouse TRPC4 channel inhibitors, dose response, cell-based, HEK293 TRPC4/mu-opioid, Fluo-4 calcium (AID 434942); type: functional;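 further: potency of inhibitors blocking the TRPC4 calcium response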
T1 sequence (Q9QUQ5 whole entry): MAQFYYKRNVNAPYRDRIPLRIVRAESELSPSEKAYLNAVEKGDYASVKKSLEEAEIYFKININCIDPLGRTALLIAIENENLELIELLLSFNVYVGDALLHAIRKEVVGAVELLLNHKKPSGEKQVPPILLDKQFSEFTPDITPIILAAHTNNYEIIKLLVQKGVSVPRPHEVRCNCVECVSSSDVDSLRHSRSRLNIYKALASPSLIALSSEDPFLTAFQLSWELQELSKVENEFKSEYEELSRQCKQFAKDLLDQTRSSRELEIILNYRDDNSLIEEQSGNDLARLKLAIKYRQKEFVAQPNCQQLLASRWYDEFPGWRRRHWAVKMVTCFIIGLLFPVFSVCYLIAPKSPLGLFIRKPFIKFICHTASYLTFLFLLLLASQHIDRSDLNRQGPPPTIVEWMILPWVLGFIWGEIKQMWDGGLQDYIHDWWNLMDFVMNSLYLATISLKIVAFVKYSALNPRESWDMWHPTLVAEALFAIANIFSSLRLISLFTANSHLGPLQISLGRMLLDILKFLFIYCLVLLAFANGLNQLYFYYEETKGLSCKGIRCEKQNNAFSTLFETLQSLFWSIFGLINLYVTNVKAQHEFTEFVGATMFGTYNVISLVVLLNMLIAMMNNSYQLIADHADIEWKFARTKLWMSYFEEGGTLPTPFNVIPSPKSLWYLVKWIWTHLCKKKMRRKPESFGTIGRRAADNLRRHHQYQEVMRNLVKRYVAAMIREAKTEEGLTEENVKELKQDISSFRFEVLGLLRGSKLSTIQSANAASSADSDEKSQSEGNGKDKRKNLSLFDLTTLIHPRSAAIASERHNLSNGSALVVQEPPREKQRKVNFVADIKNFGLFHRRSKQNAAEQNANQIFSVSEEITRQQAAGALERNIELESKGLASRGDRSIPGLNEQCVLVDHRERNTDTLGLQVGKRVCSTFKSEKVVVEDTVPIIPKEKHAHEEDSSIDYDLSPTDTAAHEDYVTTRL

[6] = system: BJ; test: cytotoxicity toward Ras-transformed BJeLR fibroblasts, dose response, cell-based, alamar blue fluorescence, cherrypicked samples (AID 2631); type: functional; details: Homo sapiens;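 further: confirmatory dose-response assay in RAS-dependent BJ fibroblasts engineered with TERT, LT and ST, with cytotoxicity read by fluorescence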
[7] = biological target: Transthyretin (Homo sapiens, UniProt P02766); test: Luminescence-based cell-based high throughput dose response assay to identify activators of Transthyretin (TTR) transcription.; type: functional
[8] = A549 cell cytotoxicity, dose response, cytotoxicity control, plate reader, cherry-pick, antagonist series (AID 743412); type: functional, cell-based
[9] = HepG2 cell cytotoxicity, dose response, cytotoxicity control, plate reader, cherry-pick, antagonist series (AID 743416); type: functional, cell-based
[10] = LGR2 antagonists, dose response, cell-based, HEK293, CRE-luciferase reporter, cherry pick, set 2 (AID 743343); type: functional;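 further: transfected cells were stimulated with diluted bursicon conditioned medium after compound addition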
[11] = MC4R antagonists, dose response, counter-screen for LGR2 antagonist project, cell-based, plate reader, cherry pick (AID 743444); type: functional;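 further: transfected HEK 293 cells stimulated with alpha-MSH peptide; potency of inhibitors of the alpha-MSH evoked signal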
[12] = HEK293 cell cytotoxicity, dose response, cytotoxicity control, plate reader, cherry-picked samples (AID 743446); type: functional, cell-based
[13] = biological target: Kallikrein-7 (Homo sapiens, UniProt P49862); test: Fluorescence Intensity-based biochemical primary high throughput dose response assay to identify activators of kallikrein-7 (K7) zymogen.
[14] = biological target: NAD-dependent protein deacylase sirtuin-5, mitochondrial (Homo sapiens, UniProt Q9NXA8); test: SIRT5 desuccinylase inhibitors, dose response, biochemical, fluorescence imaging, cherry-pick, set 5 (AID 720591);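 further: desuccinylation of succinyl peptide AMC substrate read as fluorescence after trypsin release; potency of inhibitors that lower fluorescence and may act on trypsin instead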
[15] = system: INS1; test: beta cell apoptosis inhibitors, cytokine rescue, dose response, luminescence, retest (AID 449756); type: functional, cell-based; details: Rattus norvegicus;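 further: cell death triggered by IL-1 beta plus TNF-alpha plus IFN-gamma mixture; protective hits raise ATP signal compared with cytokine alone wells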
[16] = biological target: T2, DNA repair and recombination protein RAD54-like (Homo sapiens, UniProt Q92698); test: inhibitors of human RAD54 branch migration, confirmation, biochemical, fluorescence, cherry-picked samples, dose series (AID 651657); type: functional
T2 sequence (Q92698 whole entry): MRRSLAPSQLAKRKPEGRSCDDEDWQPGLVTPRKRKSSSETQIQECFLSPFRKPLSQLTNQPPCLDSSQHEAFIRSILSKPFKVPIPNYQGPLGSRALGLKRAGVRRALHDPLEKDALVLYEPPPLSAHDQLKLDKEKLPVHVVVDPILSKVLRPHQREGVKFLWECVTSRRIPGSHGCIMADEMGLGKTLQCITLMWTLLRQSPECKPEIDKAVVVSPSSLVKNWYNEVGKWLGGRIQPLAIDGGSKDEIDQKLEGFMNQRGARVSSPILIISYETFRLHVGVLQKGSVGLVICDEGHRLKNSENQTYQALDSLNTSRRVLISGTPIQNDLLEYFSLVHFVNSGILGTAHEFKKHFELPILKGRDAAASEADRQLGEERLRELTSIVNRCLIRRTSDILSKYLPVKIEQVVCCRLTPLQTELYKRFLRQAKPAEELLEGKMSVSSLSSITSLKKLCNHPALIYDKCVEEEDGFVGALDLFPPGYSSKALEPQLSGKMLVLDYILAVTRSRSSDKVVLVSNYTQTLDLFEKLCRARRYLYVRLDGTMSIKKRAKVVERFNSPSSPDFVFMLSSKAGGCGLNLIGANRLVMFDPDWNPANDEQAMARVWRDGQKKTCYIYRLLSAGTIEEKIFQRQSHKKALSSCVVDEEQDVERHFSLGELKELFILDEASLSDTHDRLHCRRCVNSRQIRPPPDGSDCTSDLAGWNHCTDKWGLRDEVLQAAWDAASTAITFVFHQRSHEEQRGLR

[17] = biological target: T3, DNA repair protein RAD52 homolog (Homo sapiens, UniProt P43351); type: functional, biochemical
T3 sequence (P43351 whole entry): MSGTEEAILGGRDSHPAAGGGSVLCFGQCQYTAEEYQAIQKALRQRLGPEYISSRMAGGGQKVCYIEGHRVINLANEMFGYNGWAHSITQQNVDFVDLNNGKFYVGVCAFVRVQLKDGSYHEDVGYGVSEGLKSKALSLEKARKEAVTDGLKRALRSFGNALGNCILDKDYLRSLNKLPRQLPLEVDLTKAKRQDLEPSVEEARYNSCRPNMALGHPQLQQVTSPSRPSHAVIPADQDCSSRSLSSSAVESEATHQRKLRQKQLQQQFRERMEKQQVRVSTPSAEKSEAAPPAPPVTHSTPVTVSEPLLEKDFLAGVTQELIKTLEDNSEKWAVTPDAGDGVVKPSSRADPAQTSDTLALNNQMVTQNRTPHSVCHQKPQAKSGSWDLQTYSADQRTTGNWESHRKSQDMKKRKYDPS

[18] = biological target: Paired box protein Pax-8 (Homo sapiens, UniProt Q06710); test: inhibitors of PAX8-driven TPO luciferase reporter, dose response, RMG-I cells, cherry-pick (AID 687027); type: functional, cell-based;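 further: luciferase reporter driven by Pax8 target thyroperoxidase promoter measured by SteadyGlo luminescence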
[19] = A2780 ovarian cancer cell cytotoxicity, dose response, cytotoxicity control, plate reader, dry powder samples (AID 743046); type: functional, cell-based
[20] = NIH:OVCAR-3 ovarian cancer cell cytotoxicity, dose response, PAX8 inhibitor project, plate reader, dry powder samples (AID 743044); type: functional, cell-based
[21] = cytotoxicity in OVCAR8 ovarian cancer cells, dose response, PAX8 project, cell-based, plate reader, dry powder samples (AID 743197); type: functional; details: OVCAR-8
[22] = system: HEK293; test: HEK293T cell cytotoxicity, dose response, cytotoxicity control, ATP luminescence, cherry-pick samples (AID 687005); type: functional, cell-based; details: Homo sapiens;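 further: cells exposed to compound for 48 hours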
[23] = HEK293 Cytotoxicity Assay Measured in Cell-Based System Using Plate Reader - 7071-01_Inhibitor_Dose_CherryPick_Activity_Set2.; type: functional
[24] = biological target: Potassium channel subfamily K member 9 (Homo sapiens, UniProt Q9NPC2); test: TASK3 (KCNK9) channel inhibitors, thallium flux, SAR follow-up, selectivity assay for TASK1 inhibitor project, cell-based, FluxOR thallium flux, concentration-response (AID 652211); type: functional;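 further: potency is for inhibitors of the channel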
[25] = biological target: Potassium channel subfamily K member 3 (Homo sapiens, UniProt O14649); test: TASK1 (KCNK3) potassium channel inhibitors, SAR follow-up, CHO cells, FluxOR thallium flux (AID 652212); type: functional
[26] = inhibitors of intracellular T. cruzi replication, confirmation, NIH3T3 host cells, beta-gal luminescence (AID 2044); type: functional, cell-based;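 further: intracellular parasites grown in NIH/3T3 mouse fibroblasts as host cells; luminescent beta-galactosidase reporter signal from transgenic T. cruzi replicating inside host cells; inhibitors lower the luminescence signal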
[27] = cytotoxicity toward NIH3T3 fibroblasts, dose response, counter-screen, cell-based, ATP luminescence, mouse fibroblasts (AID 2010); type: functional;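 further: cells exposed to compound for about 90 hours before reading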
[28] = THP-1 cell cytotoxicity, dose response, cytotoxicity control for Vif-APOBEC3G degradation inhibitor project, THP-1 cells (AID 1117359); type: functional; details: Human immunodeficiency virus 1, THP-1
[29] = biological target: G-protein coupled receptor 183 (Homo sapiens, UniProt P32249); test: SAR confirmation of small molecule antagonists of the EBI2 receptor via a luminescent beta-arrestin assa.; type: functional
Chain of G-protein coupled receptor 183 (P32249 whole entry): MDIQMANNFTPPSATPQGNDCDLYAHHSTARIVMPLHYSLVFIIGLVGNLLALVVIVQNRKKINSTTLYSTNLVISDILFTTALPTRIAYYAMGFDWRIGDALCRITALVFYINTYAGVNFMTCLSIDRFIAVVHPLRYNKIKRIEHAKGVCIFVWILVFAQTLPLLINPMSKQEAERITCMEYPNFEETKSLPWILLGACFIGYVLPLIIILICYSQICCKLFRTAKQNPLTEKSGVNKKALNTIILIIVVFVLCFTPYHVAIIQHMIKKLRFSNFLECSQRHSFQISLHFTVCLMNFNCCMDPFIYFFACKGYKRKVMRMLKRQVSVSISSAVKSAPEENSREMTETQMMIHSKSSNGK

Chain of NAD-dependent protein deacylase sirtuin-5, mitochondrial (Q9NXA8 whole entry): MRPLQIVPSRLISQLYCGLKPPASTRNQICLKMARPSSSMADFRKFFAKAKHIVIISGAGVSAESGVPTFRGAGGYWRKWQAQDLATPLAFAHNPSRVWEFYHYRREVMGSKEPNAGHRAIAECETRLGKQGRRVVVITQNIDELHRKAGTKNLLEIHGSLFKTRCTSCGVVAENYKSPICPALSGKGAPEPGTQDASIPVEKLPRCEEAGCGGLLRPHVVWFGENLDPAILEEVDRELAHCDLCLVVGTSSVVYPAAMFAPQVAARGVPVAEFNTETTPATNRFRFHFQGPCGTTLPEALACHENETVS
Chain of Potassium channel subfamily K member 9 (Q9NPC2 whole entry): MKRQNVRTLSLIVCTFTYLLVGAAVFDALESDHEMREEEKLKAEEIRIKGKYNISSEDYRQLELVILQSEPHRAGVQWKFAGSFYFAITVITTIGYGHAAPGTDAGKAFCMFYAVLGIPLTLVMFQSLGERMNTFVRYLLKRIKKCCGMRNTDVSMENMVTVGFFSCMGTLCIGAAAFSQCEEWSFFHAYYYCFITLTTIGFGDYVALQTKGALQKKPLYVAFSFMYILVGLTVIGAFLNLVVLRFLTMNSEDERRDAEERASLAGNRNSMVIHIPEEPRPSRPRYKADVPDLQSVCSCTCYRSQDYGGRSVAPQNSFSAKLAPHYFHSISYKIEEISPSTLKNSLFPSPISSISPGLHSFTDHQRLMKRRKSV
Chain of Paired box protein Pax-8 (Q06710 whole entry): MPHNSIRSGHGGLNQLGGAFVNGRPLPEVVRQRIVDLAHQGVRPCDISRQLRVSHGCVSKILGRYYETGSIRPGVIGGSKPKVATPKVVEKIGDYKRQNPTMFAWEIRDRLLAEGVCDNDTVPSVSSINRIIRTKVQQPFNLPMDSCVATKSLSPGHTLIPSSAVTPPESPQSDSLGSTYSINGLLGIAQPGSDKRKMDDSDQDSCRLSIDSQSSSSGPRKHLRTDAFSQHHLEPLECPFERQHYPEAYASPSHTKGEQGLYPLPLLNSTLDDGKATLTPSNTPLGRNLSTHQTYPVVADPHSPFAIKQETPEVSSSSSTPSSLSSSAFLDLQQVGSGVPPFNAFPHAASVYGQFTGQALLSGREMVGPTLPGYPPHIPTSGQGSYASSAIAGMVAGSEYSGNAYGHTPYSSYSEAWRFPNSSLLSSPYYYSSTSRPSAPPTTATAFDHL
Chain of Kallikrein-7 (P49862 whole entry): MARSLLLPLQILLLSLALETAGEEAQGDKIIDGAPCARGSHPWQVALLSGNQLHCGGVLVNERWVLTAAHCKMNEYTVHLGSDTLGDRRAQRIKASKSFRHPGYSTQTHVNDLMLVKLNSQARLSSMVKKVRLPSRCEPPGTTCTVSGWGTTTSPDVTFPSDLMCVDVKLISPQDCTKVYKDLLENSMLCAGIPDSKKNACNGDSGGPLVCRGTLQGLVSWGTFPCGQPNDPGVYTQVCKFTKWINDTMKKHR
Chain of Potassium channel subfamily K member 3 (O14649 whole entry): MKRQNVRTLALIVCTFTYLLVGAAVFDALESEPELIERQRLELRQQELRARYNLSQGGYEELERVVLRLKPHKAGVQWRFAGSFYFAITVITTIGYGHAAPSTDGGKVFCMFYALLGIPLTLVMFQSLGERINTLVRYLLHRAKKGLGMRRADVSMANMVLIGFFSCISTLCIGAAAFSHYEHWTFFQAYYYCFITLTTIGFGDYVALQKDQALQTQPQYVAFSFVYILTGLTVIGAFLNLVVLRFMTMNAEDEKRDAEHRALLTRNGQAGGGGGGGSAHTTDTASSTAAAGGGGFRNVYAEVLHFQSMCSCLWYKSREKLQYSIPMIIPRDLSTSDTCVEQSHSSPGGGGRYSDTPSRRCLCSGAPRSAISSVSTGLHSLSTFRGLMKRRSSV

With `CN(C)CC(CCC(CN(C)C)C(O)(c1ccccc1)c1ccccc1)C(O)(c1ccccc1)c1ccccc1` (configuration not stated) the EC50 [1] was 4.97 µM (inconclusive), the EC50 [2] was 11.6 µM (active) and the EC50 [3] was 5.82 µM (inconclusive). For the same compound, the EC50 [4] was 5.81 µM (active), the EC50 [5] was 1.68 µM (active) and the EC50 [6] was 2.13 µM (active). The EC50 [7] was > 167 µM (inactive).

In the case of `NC(=O)c1ccsc1NC(=O)c1ccc(N2CCCC2=O)cc1`, the AC50 [8] is reported as 50.9 µM (active), the AC50 [9] is reported as > 52 µM (inactive) and the AC50 [10] is reported as 10.5 µM (active). The AC50 [11] was 16.5 µM (active) and the AC50 [12] was > 52 µM (inactive).

In the case of `CN1C(=O)c2ccccc2N(C)C1c1ccc(F)cc1` (configuration not stated), the EC50 [13] is reported as > 69.5 µM (inactive).

In the case of `O=C(Cn1cnc(S(=O)(=O)N2CCCC2)c1)Nc1cccc(Br)c1`, the AC50 [14] is reported as > 30 µM (inactive).

For `COc1ccc(CCNc2c3ccccc3nc3ccccc23)cc1OC`, the AC50 [15] was 4.5 µM (active), the AC50 [16] was 7.87 µM (active) and the AC50 [17] was 6.38 µM (active). The EC50 [7] was > 167 µM (inactive).

With `CCCCCCCCN1C(=O)[C@H](CC(=O)NCCCN2CCCC2=O)C[C@@]2(C(=O)OC)CC(C)(C)CC=C12` the AC50 [14] was > 30 µM (inactive).

In the case of `C[C@H](CO)N1C[C@H](C)[C@H](CN(C)Cc2ccc(C(F)(F)F)cc2)OCCCC[C@H](C)Oc2ccc(NC(=O)Nc3ccccc3)cc2C1=O`, the AC50 [18] is reported as 8.44 µM (active), the AC50 [19] is reported as 11.8 µM (active) and the AC50 [20] is reported as 27.6 µM (active). The AC50 [21] was 30.7 µM (active).

For `CCS(=O)(=O)N1CCCCN2[C@H](C1)[C@@H](c1ccc(-c3ccc(C#N)cc3)cc1)[C@@H]2CO`, the AC50 [22] was 18.6 µM (active) and the AC50 [23] was 18.6 µM (active).

For `CCOc1ccccc1NC(=O)c1cccc(NC(=O)c2ccccc2Cl)c1`, the IC50 [24] was 2.63 µM (active) and the IC50 [25] was 0.084 µM (active).

With `O=[N+]([O-])c1ccc(/C=N/Nc2nc(N3CCCC3)nc(N3CCCC3)n2)o1` the EC50 [26] was 0.563 µM (active), the EC50 [27] was > 60 µM (not active) and the CC50 [28] was > 40 µM (active).

For `O=C(/C=C/c1ccc(F)cc1)N1CCN(S(=O)(=O)Cc2ccccc2)CC1`, the IC50 [29] was 0.0287 µM (active).

For `CC(C)(C)c1ccc(S(=O)(=O)N2CCN(C(=O)/C=C/c3ccc(Cl)c(Cl)c3)CC2)cc1`, the IC50 [29] was 0.0468 µM (active).
